The values below come from ChEMBL document CHEMBL1150141, “Cytotoxic diarylheptanoids from the roots of Juglans mandshurica” (J Nat Prod, 2002).

Converted amounts (≈) assume the structure as drawn.

As usually defined, the IC50 is the point on the concentration scale where inhibition reaches its midpoint. Low readings indicate greater potency in that assay, high ones weaker potency in that assay.

The test system of one assay is HT-29. Description: Cytotoxicity against human HT-29 cells by MTT assay. It counts as functional, cell-based. (In general: Tetrazolium dyes change colour on reduction, which living cells bring about.)
A further assay has as its system A549. Description: Cytotoxicity against human A549 cells by MTT assay. It is filed as functional, cell-based.

For the molecule `COc1cc(C2CC(O)CC(C(O)Cc3ccc(O)cc3)O2)ccc1O` (configuration not stated), the IC50 in the assay with HT-29 and with A549 was greater than 50 µg/mL in each case.
Turning to `COc1cc(CC/C=C/C(=O)CCc2ccc(O)cc2)ccc1O`, the results for the IC50 in the assay on HT-29 and in the assay with A549 were 8.2 µg/mL (≈ 25.1 µM) and 5.4 µg/mL (≈ 16.5 µM), respectively.
Regarding `COc1cc2ccc1Oc1cc(ccc1O)CCC(=O)CCCC2`, the IC50 in the assay on HT-29 was 5.3 µg/mL (≈ 16.2 µM); in the assay with A549 it was 2.2 µg/mL (≈ 6.74 µM).
Regarding `CC(C)(O)[C@@H]1CC[C@@]2(C)CCC[C@@](C)(O)[C@@H]2C1`, the concentration for half-maximal inhibition (IC50) was 12.9 µg/mL (≈ 53.7 µM) in the assay on HT-29 and 9.9 µg/mL (≈ 41.2 µM) in the assay on A549.
On the same counts, the results for `COc1ccc2cc1Oc1ccc(c(O)c1OC)CCCCC(O)CC2` (configuration not stated) are 23.9 µg/mL (≈ 66.7 µM) and 11.5 µg/mL (≈ 32.1 µM).
In the case of `COC(=O)C(O)(c1cc2c(c3oc([C@]4(C)C[C@@H]4C)cc(=O)c13)C(=O)c1c(ccc([C@H]3C[C@](C)(N(C)C)[C@H](O[C@@H]4C[C@H](OC)[C@H](O)[C@@H](C)O4)[C@H](C)O3)c1O)C2=O)[C@H]1O[C@H](C)[C@@H](O)[C@@H](OC)[C@@H]1O` (some centres not stated) [ALTROMYCIN B], the figures for the IC50 in the assay on HT-29 and in the assay on A549 were 3.9 µg/mL (≈ 4.22 µM) and 4.2 µg/mL (≈ 4.55 µM), respectively.
